Laboratory results reported in the NIST ThermoML archive (doi:10.1021/je034062r).
Numbers after ± are expanded uncertainties.

Assay: xn = mol fraction of the nth substance listed
Details: for mass density: Liquid; for surface tension liquid-gas: Pendant drop shape

C1CCCCC1 [cyclohexane] + CCCCCCC
mass density (283.15 K, x1 = 0.1022): 699.2 ± 1 kg/m3
mass density (283.15 K, x1 = 0.2022): 706.5 ± 1 kg/m3
mass density (283.15 K, x1 = 0.3078): 714.6 ± 1 kg/m3
mass density (283.15 K, x1 = 0.401): 722.3 ± 1.1 kg/m3
mass density (283.15 K, x1 = 0.4984): 730.8 ± 0.8 kg/m3
mass density (283.15 K, x1 = 0.7003): 750.8 ± 1.5 kg/m3
mass density (283.15 K, x1 = 0.8054): 761.5 ± 1.3 kg/m3
mass density (283.15 K, x1 = 0.898): 774.2 ± 1.5 kg/m3
mass density (283.15 K, x1 = 1): 787.9 ± 0.5 kg/m3
surface tension liquid-gas (287.81 K, x1 = 0.1022): 20.91 ± 0.26 mN/m
surface tension liquid-gas (287.81 K, x1 = 0.2022): 21.31 ± 0.26 mN/m
surface tension liquid-gas (287.81 K, x1 = 0.3078): 21.65 ± 0.26 mN/m
surface tension liquid-gas (287.81 K, x1 = 0.401): 21.88 ± 0.26 mN/m
surface tension liquid-gas (287.81 K, x1 = 0.4984): 22.27 ± 0.27 mN/m
surface tension liquid-gas (287.81 K, x1 = 0.6002): 22.62 ± 0.27 mN/m
surface tension liquid-gas (287.81 K, x1 = 0.7003): 23.08 ± 0.27 mN/m
surface tension liquid-gas (287.81 K, x1 = 0.8054): 23.84 ± 0.28 mN/m
surface tension liquid-gas (287.81 K, x1 = 0.898): 24.39 ± 0.29 mN/m
surface tension liquid-gas (287.81 K, x1 = 1): 25.34 ± 0.28 mN/m
mass density (288.15 K, x1 = 0.1022): 695 ± 1 kg/m3
mass density (288.15 K, x1 = 0.2022): 702.2 ± 1 kg/m3
mass density (288.15 K, x1 = 0.3078): 710.4 ± 1 kg/m3
mass density (288.15 K, x1 = 0.401): 717.9 ± 1.1 kg/m3
mass density (288.15 K, x1 = 0.4984): 726.5 ± 0.9 kg/m3
mass density (288.15 K, x1 = 0.7003): 746.4 ± 1.4 kg/m3
mass density (288.15 K, x1 = 0.8054): 758 ± 1.3 kg/m3
mass density (288.15 K, x1 = 0.898): 769.7 ± 1.4 kg/m3
mass density (288.15 K, x1 = 1): 783.2 ± 0.5 kg/m3
mass density (293.15 K, x1 = 0.1022): 690.8 ± 1 kg/m3
mass density (293.15 K, x1 = 0.2022): 698 ± 1 kg/m3
mass density (293.15 K, x1 = 0.3078): 706.1 ± 1 kg/m3
mass density (293.15 K, x1 = 0.401): 713.6 ± 1.1 kg/m3
mass density (293.15 K, x1 = 0.4984): 722.2 ± 1 kg/m3
mass density (293.15 K, x1 = 0.7003): 742 ± 1.3 kg/m3
mass density (293.15 K, x1 = 0.8054): 753.5 ± 1.3 kg/m3
mass density (293.15 K, x1 = 0.898): 765.1 ± 1.4 kg/m3
mass density (293.15 K, x1 = 1): 778.6 ± 0.5 kg/m3
surface tension liquid-gas (297.82 K, x1 = 0.1022): 19.95 ± 0.25 mN/m
surface tension liquid-gas (297.82 K, x1 = 0.2022): 20.25 ± 0.25 mN/m
surface tension liquid-gas (297.82 K, x1 = 0.3078): 20.52 ± 0.26 mN/m
surface tension liquid-gas (297.82 K, x1 = 0.401): 20.9 ± 0.26 mN/m
surface tension liquid-gas (297.82 K, x1 = 0.4984): 21.21 ± 0.26 mN/m
surface tension liquid-gas (297.82 K, x1 = 0.6002): 21.57 ± 0.26 mN/m
surface tension liquid-gas (297.82 K, x1 = 0.7003): 22.14 ± 0.27 mN/m
surface tension liquid-gas (297.82 K, x1 = 0.8054): 22.72 ± 0.27 mN/m
surface tension liquid-gas (297.82 K, x1 = 0.898): 23.32 ± 0.28 mN/m
surface tension liquid-gas (297.82 K, x1 = 1): 24.2 ± 0.27 mN/m
mass density (298.15 K, x1 = 0.1022): 686.5 ± 1 kg/m3
mass density (298.15 K, x1 = 0.2022): 693.6 ± 1 kg/m3
mass density (298.15 K, x1 = 0.3078): 701.7 ± 1 kg/m3
mass density (298.15 K, x1 = 0.401): 709.2 ± 1.1 kg/m3
mass density (298.15 K, x1 = 0.4984): 717.8 ± 1 kg/m3
mass density (298.15 K, x1 = 0.6002): 725.6 ± 10 kg/m3
mass density (298.15 K, x1 = 0.7003): 737.5 ± 1.3 kg/m3
mass density (298.15 K, x1 = 0.8054): 749 ± 1.3 kg/m3
mass density (298.15 K, x1 = 0.898): 760.5 ± 1.4 kg/m3
mass density (298.15 K, x1 = 1): 773.9 ± 0.5 kg/m3
mass density (303.15 K, x1 = 0.1022): 682.2 ± 1 kg/m3
mass density (303.15 K, x1 = 0.2022): 689.3 ± 1 kg/m3
mass density (303.15 K, x1 = 0.3078): 697.4 ± 1 kg/m3
mass density (303.15 K, x1 = 0.401): 704.8 ± 1.1 kg/m3
mass density (303.15 K, x1 = 0.4984): 713.3 ± 1.1 kg/m3
mass density (303.15 K, x1 = 0.6002): 722 ± 10 kg/m3
mass density (303.15 K, x1 = 0.7003): 733 ± 1.2 kg/m3
mass density (303.15 K, x1 = 0.8054): 744.4 ± 1.3 kg/m3
mass density (303.15 K, x1 = 0.898): 755.8 ± 1.4 kg/m3
mass density (303.15 K, x1 = 1): 769.2 ± 0.5 kg/m3
surface tension liquid-gas (307.86 K, x1 = 0.1022): 18.91 ± 0.25 mN/m
surface tension liquid-gas (307.86 K, x1 = 0.2022): 19.25 ± 0.25 mN/m
surface tension liquid-gas (307.86 K, x1 = 0.3078): 19.58 ± 0.25 mN/m
surface tension liquid-gas (307.86 K, x1 = 0.401): 19.87 ± 0.25 mN/m
surface tension liquid-gas (307.86 K, x1 = 0.4984): 20.19 ± 0.25 mN/m
surface tension liquid-gas (307.86 K, x1 = 0.6002): 20.53 ± 0.25 mN/m
surface tension liquid-gas (307.86 K, x1 = 0.7003): 21.06 ± 0.26 mN/m
surface tension liquid-gas (307.86 K, x1 = 0.8054): 21.64 ± 0.26 mN/m
surface tension liquid-gas (307.86 K, x1 = 0.898): 22.18 ± 0.27 mN/m
surface tension liquid-gas (307.86 K, x1 = 1): 23.02 ± 0.26 mN/m
mass density (308.15 K, x1 = 0.1022): 677.8 ± 1 kg/m3
mass density (308.15 K, x1 = 0.2022): 685 ± 1 kg/m3
mass density (308.15 K, x1 = 0.3078): 693 ± 1 kg/m3
mass density (308.15 K, x1 = 0.401): 700.4 ± 1.1 kg/m3
mass density (308.15 K, x1 = 0.4984): 708.9 ± 1.1 kg/m3
mass density (308.15 K, x1 = 0.6002): 718.1 ± 10 kg/m3
mass density (308.15 K, x1 = 0.7003): 728.4 ± 1.2 kg/m3
mass density (308.15 K, x1 = 0.8054): 739.8 ± 1.3 kg/m3
mass density (308.15 K, x1 = 0.898): 751.2 ± 1.4 kg/m3
mass density (308.15 K, x1 = 1): 764.4 ± 0.5 kg/m3
mass density (313.15 K, x1 = 0.1022): 673.5 ± 1 kg/m3
mass density (313.15 K, x1 = 0.2022): 680.6 ± 1 kg/m3
mass density (313.15 K, x1 = 0.3078): 688.6 ± 1 kg/m3
mass density (313.15 K, x1 = 0.401): 696 ± 1.1 kg/m3
mass density (313.15 K, x1 = 0.4984): 704.4 ± 1.1 kg/m3
mass density (313.15 K, x1 = 0.6002): 713.8 ± 10 kg/m3
mass density (313.15 K, x1 = 0.7003): 723.9 ± 1.2 kg/m3
mass density (313.15 K, x1 = 0.8054): 735.2 ± 1.3 kg/m3
mass density (313.15 K, x1 = 0.898): 746.5 ± 1.4 kg/m3
mass density (313.15 K, x1 = 1): 759.6 ± 0.5 kg/m3
surface tension liquid-gas (317.86 K, x1 = 0.1022): 17.91 ± 0.24 mN/m
surface tension liquid-gas (317.86 K, x1 = 0.2022): 18.36 ± 0.24 mN/m
surface tension liquid-gas (317.86 K, x1 = 0.3078): 18.53 ± 0.24 mN/m
surface tension liquid-gas (317.86 K, x1 = 0.401): 18.82 ± 0.24 mN/m
surface tension liquid-gas (317.86 K, x1 = 0.4984): 19.16 ± 0.24 mN/m
surface tension liquid-gas (317.86 K, x1 = 0.6002): 19.55 ± 0.25 mN/m
surface tension liquid-gas (317.86 K, x1 = 0.7003): 20.01 ± 0.25 mN/m
surface tension liquid-gas (317.86 K, x1 = 0.8054): 20.56 ± 0.25 mN/m
surface tension liquid-gas (317.86 K, x1 = 0.898): 21.07 ± 0.26 mN/m
surface tension liquid-gas (317.86 K, x1 = 1): 21.84 ± 0.25 mN/m
mass density (318.15 K, x1 = 0.1022): 669 ± 1 kg/m3
mass density (318.15 K, x1 = 0.2022): 676.1 ± 1 kg/m3
mass density (318.15 K, x1 = 0.3078): 684.1 ± 1 kg/m3
mass density (318.15 K, x1 = 0.401): 691.5 ± 1.1 kg/m3
mass density (318.15 K, x1 = 0.4984): 699.9 ± 1.1 kg/m3
mass density (318.15 K, x1 = 0.6002): 709.3 ± 10 kg/m3
mass density (318.15 K, x1 = 0.7003): 719.3 ± 1.2 kg/m3
mass density (318.15 K, x1 = 0.8054): 730.6 ± 1.3 kg/m3
mass density (318.15 K, x1 = 0.898): 741.8 ± 1.4 kg/m3
mass density (318.15 K, x1 = 1): 754.8 ± 0.5 kg/m3
mass density (323.15 K, x1 = 0.1022): 664.6 ± 1 kg/m3
mass density (323.15 K, x1 = 0.2022): 671.7 ± 1 kg/m3
mass density (323.15 K, x1 = 0.3078): 679.6 ± 1 kg/m3
mass density (323.15 K, x1 = 0.401): 686.9 ± 1.1 kg/m3
mass density (323.15 K, x1 = 0.4984): 695.4 ± 1.1 kg/m3
mass density (323.15 K, x1 = 0.6002): 704.7 ± 10 kg/m3
mass density (323.15 K, x1 = 0.7003): 714.7 ± 1.2 kg/m3
mass density (323.15 K, x1 = 0.8054): 725.9 ± 1.3 kg/m3
mass density (323.15 K, x1 = 0.898): 737.1 ± 1.4 kg/m3
mass density (323.15 K, x1 = 1): 750 ± 0.5 kg/m3
surface tension liquid-gas (327.88 K, x1 = 0.1022): 16.83 ± 0.23 mN/m
surface tension liquid-gas (327.88 K, x1 = 0.2022): 17.05 ± 0.23 mN/m
surface tension liquid-gas (327.88 K, x1 = 0.3078): 17.41 ± 0.23 mN/m
surface tension liquid-gas (327.88 K, x1 = 0.401): 17.52 ± 0.23 mN/m
surface tension liquid-gas (327.88 K, x1 = 0.4984): 17.99 ± 0.24 mN/m
surface tension liquid-gas (327.88 K, x1 = 0.6002): 18.44 ± 0.24 mN/m
surface tension liquid-gas (327.88 K, x1 = 0.7003): 18.95 ± 0.24 mN/m
surface tension liquid-gas (327.88 K, x1 = 0.8054): 19.48 ± 0.24 mN/m
surface tension liquid-gas (327.88 K, x1 = 0.898): 19.98 ± 0.25 mN/m
surface tension liquid-gas (327.88 K, x1 = 1): 20.71 ± 0.24 mN/m
mass density (328.15 K, x1 = 0.1022): 660.1 ± 1 kg/m3
mass density (328.15 K, x1 = 0.2022): 667.2 ± 1 kg/m3
mass density (328.15 K, x1 = 0.3078): 675.1 ± 1 kg/m3
mass density (328.15 K, x1 = 0.401): 682.4 ± 1.1 kg/m3
mass density (328.15 K, x1 = 0.4984): 691 ± 1.1 kg/m3
mass density (328.15 K, x1 = 0.6002): 700.1 ± 10 kg/m3
mass density (328.15 K, x1 = 0.7003): 710 ± 1.2 kg/m3
mass density (328.15 K, x1 = 0.8054): 721.2 ± 1.3 kg/m3
mass density (328.15 K, x1 = 0.898): 732.3 ± 1.4 kg/m3
mass density (328.15 K, x1 = 1): 745.2 ± 0.6 kg/m3
mass density (333.15 K, x1 = 0.1022): 655.5 ± 1 kg/m3
mass density (333.15 K, x1 = 0.3078): 670.5 ± 1 kg/m3
mass density (333.15 K, x1 = 0.401): 677.8 ± 1.1 kg/m3
mass density (333.15 K, x1 = 0.4984): 686.2 ± 1.1 kg/m3
mass density (333.15 K, x1 = 0.6002): 695.5 ± 10 kg/m3
mass density (333.15 K, x1 = 0.7003): 705.3 ± 1.2 kg/m3
mass density (333.15 K, x1 = 0.8054): 716.5 ± 1.3 kg/m3
mass density (333.15 K, x1 = 0.898): 727.5 ± 1.4 kg/m3
mass density (333.15 K, x1 = 1): 740.3 ± 0.6 kg/m3
